# What was measured:
# Assay type in all cases: cell-based, human
# UBE2G2 = UBE2G2 levels in HT1080 cells loaded with oleic acid; details: HT1080, 200 μM oleic acid
# Procedure: Plasmid transfections were carried out using PolyFect (Qiagen, Germantown, MD, USA) or JetPrime (Polyplus, New York, NY, USA) reagents. For CHX chase experiments, approximately 24 hours following plasmid transfection, cells were treated with 50 μg/mL CHX in complete media for the indicated times. For lipid droplet experiments, cells were treated with 200 μM oleic acid (Millipore Sigma) for 16 hours, beginning 24 hours following transfection. For assessment of GFP^u stability, cells were cultured in DMEM supplemented with 10% FetalPlex animal serum complex (Gemini Bio, West Sacramento, CA, USA) and treated with 50 μM emetine for the indicated times to inhibit protein synthesis. […] Clarified lysates or immunoprecipitates were denatured by heating in NuPAGE LDS Sample Buffer with β-mercaptoethanol at 70°C for 10 minutes, resolved on Bis-Tris polyacrylamide gels in NuPAGE MES or MOPS SDS running buffer and analyzed by western blotting. Proteins were detected using Clarity Western ECL (Bio-Rad, Hercules, CA, USA), Radiance Q (Azure Biosystems, Dublin, CA, USA), or SuperSignal Femto West (Thermo Scientific, Waltham, MA, USA) ECL reagents and a c280 Imager (Azure Biosystems) or autoradiography. […]
# gp78:UBE2G2 = experiment: co-IP of gp78 with transfected MYC-UBE2G2, +/- oleic acid; details: WT HT1080, oleic acid loading, three experiments, reviewer response
# Source text: (§1) page 10: Major points: The phenotypes they show are strong but it would be nice to see the initial observations repeated in other cell lines. […] We have now generated HEK293 AUP1 KO cell lines and have recapitulated our initial results on domain requirements for both NHK and RI332 (Fig 1G-H, Fig 2C-D). We also provide data that E2 loss similarly occurs in these HEK293 AUP1 KO cells and that E2 stability can be restored by GFP-G2BR (Fig S5D and S5E). To extend our observations beyond HT1080 and HEK293, we also generated and examined M17 AUP1 KO cells, and observed a similar destabilization of UBE2G2 with loss of AUP1. […] Although, it is possible that the stability of UBE2G2 is due to the level of AUP1 in these cells, it is not clear whether the G2BR of AUP1 is always available for UBE2G2 binding and whether AUP1 acts as a sink for UBE2G2 when associated with lipid droplets. […] They can then compare the 'pulldown levels' of AUP1 and gp78 to the amounts of protein in the reference binding domains in (Figure 6). […] Alternatively, NHK degradation may be reduced under increasing Oleic acid levels but UBE2G2 binding is not affected. […] We have now loaded cells with oleic acid and assessed E2 levels and NHK degradation (Fig S5A and Fig S5B). […]
# AUP1:UBE2G2 = experiment: co-IP of AUP1 with transfected MYC-UBE2G2, +/- oleic acid; details: WT HT1080, oleic acid loading, three experiments, reviewer response
# Source text: as §1
smiles,measurement,setting,value
CCCCCCCC/C=C\CCCCCCCC(=O)O [oleic acid],effect on UBE2G2 levels,UBE2G2,affected neither UBE2G2 levels
same,decrease of gp78 co-association with MYC-UBE2G2,gp78:UBE2G2,~ 20%
same,decrease of AUP1 co-association with MYC-UBE2G2,AUP1:UBE2G2,~ 27%

# Source: article PMC8699718, “A structurally conserved site in AUP1 binds the E2 enzyme UBE2G2 and is essential for ER-associated degradation” (PLoS Biology, 2021)
